# According to US8283339B2, “Vinyl phosphonate lysophosphatidic acid receptor antagonists” (University of Virginia Patent Foundation, priority 2006, dated 2012):
# Read-outs that look alike come from different tables or passages of the source.
# How the values were obtained:
# [1] = test system: LPA inhibition of adenylyl cyclase activation in rat glioma C62B cells; assay: LPA-driven adenylyl cyclase inhibition in rat glioma cells (relief by antagonist); format: cell-based; settings: isoproterenol-stimulated cAMP accumulation, all in a dose-dependent manner, FIG. 3
# Source text: FIG. 3 is a graphic representation of LPA-driven adenylyl cyclase inhibition in C6 glioma cells.
# Rat glioma C62B cells accumulate cAMP in response to isoproterenol, and this stimulation of adenylyl cyclase is blocked by LPA. As shown, the LPA inhibition of adenylyl cyclase activation is relieved by addition of VPC51299, VPC52172, VPC52173, and VPC52178, all in a dose-dependent manner. Results are illustrated in FIG. 3.
# [2] = test system: osteo-tropic subclone of the human breast CA line, MDA MB-231; assay: Lytic bone metastasis in athymic (nude) mice; format: in vivo, mouse; settings: athymic (nude) mice injected with MDA MB-231 subclone; treated for two weeks; FIG. 13
# Method: Mice are tested for assessing lytic bone metastasis. Athymic (nude) mice were injected with a osteo-tropic subclone of the human breast CA line, MDA MB-231. After two weeks the bones are scanned to assess the cancer in the bone. The cancer is treated for two weeks and the lesions are imaged. […] 103, pp. 9643-9648. The results are illustrated in FIG. 13.
# [3] = test system: Adult male Sprague Dawley rats; assay: Chronic constriction injury (CCI) model of neuropathic pain: thermal hyperalgesia and mechanical allodynia; format: in vivo, rat
# Source text: The chronic constriction injury (CCI) model of neuropathic pain (Bennett and Xie, Pain, 33 p 87-107 (1988)) was used to assess the efficacy of test compound VPC51299 in relieving thermal hyperalgesia and mechanical allodynia. Adult male Sprague Dawley rats were anesthetized and their sciatic nerves exposed at the level of mid-thigh. Four loose ligations of chromic gut suture were placed around the sciatic nerve and the wound was closed. For sham surgeries, the sciatic nerve was mobilized and the wound closed without ligation. The animals' responses to mechanical and thermal stimuli were assessed prior to CCI and at days 1, 3, 5, 7, and 14 after CCI.
# Thermal hyperalgesia was measured using a Plantar Test Apparatus (IITC Inc, Woodland Hills, Calif.). Rats were placed on a warmed glass surface, allowed to acclimate, and a thermal stimulus was applied to the plantar surface of the hind paw. Paw withdrawal latency (PWL) is defined as the time from stimulus application to paw withdrawal. Results are illustrated in FIG. 9A.
# Mechanical allodynia was measured two ways. First, a size 5.18 Von Frey monofilament (corresponding to 15.0 g.) was applied to the plantar surface of the hind paw (Touch Test Sensory Evaluator Kit from Stoelting Co., Wood Dale, Ill.). The number of paw withdrawals out of 10 three second trials was recorded. Results are illustrated in FIG. 9B. Second, the maximum withdrawal threshold was assessed using an electronic von Frey Anesthesiometer (IITC Inc, Woodland Hills, Calif.). Force was applied to the plantar surface of the hindpaw until the rat withdrew its paw. The maximum force applied to the paw before withdrawal was recorded. Results are illustrated in FIG. 9C.
# [4] = test system: osteo-tropic subclone of the human breast CA line, MDA MB-231; settings: athymic (nude) mice injected with MDA MB-231 subclone; as described in Boucharaba et al. (2006); cited from earlier work
structure (smiles),measurement,setting,value
"CCCCCCCCCC(=O)N[C@@H](/C=C/P(=O)(O)O)Cc1ccc(OCc2cc(OCC(F)(F)F)ccn2)cc1 [VPC52173, (3R)-(3-Decanoylamino-4-{4-[4-(2,2,2-trifluoro-ethoxy)-pyridin-2-ylmethoxy]-phenyl}-trans-but-1-enyl)-phosphonic Acid]",relief of LPA inhibition of adenylyl cyclase activation,[1],relieved
"CCCCCCCCCCCCCCCC(=O)N[C@@H](/C=C/P(=O)(O)O)Cc1ccc(OCc2cc(OCC(F)(F)F)ccn2)cc1 [VPC51299, (3R)-(3-Hexadecanoylamino-4-{4-[4-(2,2,2-trifluoro-ethoxy)-pyridin-2-ylmethoxy]-phenyl}-trans-but-1-enyl)-phosphonic Acid]",size of lytic bone lesions in treated mice,[2],significantly smaller
same,relief of LPA inhibition of adenylyl cyclase activation,[1],relieved
same,"paw withdrawal latency (thermal stimulus), slower than vehicle treated rats","[3]; day 5, after 5 days of treatment, difference vs vehicle treated rats, Plantar Test",3.1 s
same,"withdrawal threshold, higher than vehicle treated rats","[3]; day 5, after 5 days of treatment, electronic von Frey Anesthesiometer, difference vs vehicle treated rats",4.0 g
same,"number of paw withdrawals (out of 10 trials), fewer than vehicle treated rats","[3]; day 5, after 5 days of treatment, size 5.18 Von Frey monofilament (15.0 g), difference vs vehicle treated rats",3.2 times
same,efficacy in relieving thermal hyperalgesia and mechanical allodynia associated with CCI,"[3]; rats with sciatic nerve ligation (CCI), FIGS. 9A-9C",effective in relieving some of the thermal hyperalgesia and mechanical allodynia
Cc1noc(-c2ccc(CSCCC(=O)O)cc2)c1NC(=O)OC(C)c1ccccc1Cl (stereo not shown) [Kil6425],size of lytic bone lesions in treated mice,[4],significantly smaller
"CCCCCCCC(=O)N[C@@H](/C=C/P(=O)(O)O)Cc1ccc(OCc2cc(OCC(F)(F)F)ccn2)cc1 [VPC52178, (1R)-(3-octanoylamino-4-{4-[4-(2,2,2-trifluoro-ethoxy)-pyridin-2-ylmethoxy]-phenyl}-trans-but-1-enyl)-phosphonic Acid]",relief of LPA inhibition of adenylyl cyclase activation,[1],relieved
"CCCCCCCCCCCC(=O)N[C@@H](/C=C/P(=O)(O)O)Cc1ccc(OCc2cc(OCC(F)(F)F)ccn2)cc1 [VPC52172, (3R)-(3-Dodecanoylamino-4-{4-[4-(2,2,2-trifluoro-ethoxy)-pyridin-2-ylmethoxy]-phenyl}-trans-but-1-enyl)-phosphonic Acid]",relief of LPA inhibition of adenylyl cyclase activation,[1],relieved
